The subject of experiment [1] is SK-N-SH. The experiment in a line: Cytotoxicity against Homo sapiens (human) SK-N-SH cells assessed as growth inhibition after 48 hr by MTT assay. The experiment is classed as functional, cell-based. A general note: Tetrazolium assays rely on reduction of a dye to a coloured formazan, in cell work by metabolically active cells.
Experiment [2] concerns A549. The experiment is described as follows: Cytotoxicity against Homo sapiens (human) A549 cells assessed as growth inhibition after 48 hr by MTT assay. Type of experiment: functional, cell-based. The note with it: A549, 48 h.

Broadly, the IC50 is the midpoint of a concentration-inhibition curve.

As to `O=c1c2ccccc2nc2n1Cc1cc3ccccc3nc1-2` [LUOTONIN A], the IC50 was 61.1 µM in experiment [1] and 61.2 µM in experiment [2].
For `O=C(Cc1ccc(/C=C/CN2Cc3cc4ccccc4nc3C2=O)cc1)N1CCCCC1` the same measures were 38.3 µM and 67.8 µM.
For `O=C(Cc1ccc(CCCN2Cc3cc4ccccc4nc3C2=O)cc1)N1CCN(c2ccccc2)CC1` the same measures were 42 µM and 65.4 µM.
With `COc1cccc2c1C(=O)c1c(O)c3c(c(O)c1C2=O)C[C@@](O)(C(=O)CO)C[C@@H]3O[C@H]1C[C@H](N)[C@H](O)[C@H](C)O1` [DOXORUBICIN], the IC50 in experiment [2] was determined as 24.3 µM.
For the molecule `O=C(Cc1ccc(/C=C/CN2Cc3cc4ccccc4nc3C2=O)cc1)N1CCCC1`, the concentration for half-maximal inhibition (IC50) in experiment [1] was determined as 57.2 µM.
Turning to `O=C(Cc1ccc(/C=C/CN2Cc3cc4ccccc4nc3C2=O)cc1)N1CCN(c2ccc([N+](=O)[O-])cc2)CC1`, the concentration for half-maximal inhibition (IC50) in experiment [1] stood at 56.2 µM; in experiment [2] it was 43.8 µM.
For `O=C(Cc1ccc(/C=C/CN2Cc3cc4ccccc4nc3C2=O)cc1)NCCO`, in experiment [1], the IC50 was 42.1 µM.
For the molecule `CC(C)N(C(=O)Cc1ccc(/C=C/CN2Cc3cc4ccccc4nc3C2=O)cc1)C(C)C`, the values for the IC50 in experiment [1] and in experiment [2] were 43.2 µM and 70.1 µM, respectively.
`O=C(Cc1ccc(/C=C/CN2Cc3cc4ccccc4nc3C2=O)cc1)N1CCN(c2ccccc2)CC1`: the IC50 in experiment [1] came out at 51.9 µM; in experiment [2] it was 53.5 µM.
For `COc1ccc(N2CCN(C(=O)Cc3ccc(CCCN4Cc5cc6ccccc6nc5C4=O)cc3)CC2)cc1`, the half-maximal inhibitory concentration (IC50) in experiment [1] is 48.9 µM; in experiment [2], 68.8 µM.
As for `O=C(Cc1ccc(CCCN2Cc3cc4ccccc4nc3C2=O)cc1)N1CCN(c2ccc([N+](=O)[O-])cc2)CC1`, the concentration for half-maximal inhibition (IC50) in experiment [1] came to 40.2 µM.
For the molecule `O=C(Cc1ccc(/C=C/CN2Cc3cc4ccccc4nc3C2=O)cc1)N1CCOCC1`, the IC50 in experiment [1] came to 8.62 µM; in experiment [2], 46.2 µM.
With `COc1ccc(N2CCN(C(=O)Cc3ccc(/C=C/CN4Cc5cc6ccccc6nc5C4=O)cc3)CC2)cc1`, the 50% inhibitory concentration (IC50) in experiment [1] is 56.3 µM.
The same measure, in the same setting: the result for `O=C(O)Cc1ccc(/C=C/CN2Cc3cc4ccccc4nc3C2=O)cc1` reads 56.6 µM.

The values above are taken from ChEMBL document CHEMBL3046964, “Synthesis of novel building blocks of 1H-pyrrolo[3,4-b]quinolin-3(2H)-one and evaluation of their antitumor activity” (Med Chem Res, 2013).
